Key:
[1] = biological target: T1, MCH1 receptor binding sites in the rat CNS (Rattus norvegicus, UniProt P97639); test: Receptor autoradiography with [3H]Compound 10 on rat brain and spinal cord sections; set-up: key to Density of MCH1 receptor binding sites: absent (−); weak (+); moderate (++); heavy (+++); intense (++++); settings: for Density of MCH1 receptor binding sites: 0.1 nM [3H] Compound 10, 1 μM prazosin, 100 μM dopamine, rat CNS
T1 construct: from tissue; host or cells: coronal brain and spinal cord sections of male Sprague-Dawley rats
T1 sequence (P97639 whole entry): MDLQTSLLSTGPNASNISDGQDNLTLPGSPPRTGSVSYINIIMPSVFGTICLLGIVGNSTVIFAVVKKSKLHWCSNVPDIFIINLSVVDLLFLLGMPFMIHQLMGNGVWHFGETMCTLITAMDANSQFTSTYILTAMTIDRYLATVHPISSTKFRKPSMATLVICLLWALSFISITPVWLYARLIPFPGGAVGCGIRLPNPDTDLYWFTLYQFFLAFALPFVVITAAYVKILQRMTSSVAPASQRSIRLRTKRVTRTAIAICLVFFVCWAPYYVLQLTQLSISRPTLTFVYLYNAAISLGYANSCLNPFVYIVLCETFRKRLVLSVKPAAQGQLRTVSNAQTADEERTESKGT
Protocol: Male Sprague-Dawley rats (Charles Rivers, Rochester, N.Y.) were euthanized using CO2 and decapitated and their brains rapidly removed and frozen on crushed dry ice. Coronal sections were cut at 20 μm using a cryostat and thaw-mounted onto gelatin-coated slides then stored at −20° C. until use.
Dopamine, prazosin, and phenanthroline were obtained from Sigma (St. Louis, Mo.). Phenylmethylsulfonyl Fluoride (PMSF) was from Calbiochem (La Jolla, Calif.). See also Chemical Synthetic Methods described hereinafter.
Tissue sections were allowed to equilibrate to room temperature for one hour. Sections were incubated at 25° C. for 1.5 hours in 50 mM Tris-HCl buffer, pH 7.4, containing 10 mM MgCl2, 0.16 mM PMSF, 0.3 mM phenanthroline, 0.2% bovine serum albumin (Boehringer Mannheim, Indianapolis, Ind.), 100 μM dopamine, 1 μM prazosin, […] Following incubation the sections were washed twice for 5 minutes each in 4° C. 50 mM Tris-buffer, pH 7.4, then rapidly dipped in ice-cold distilled water to remove the salts. Tissues were dried under a stream of cold air and apposed together with ^3H-plastic standard scales, to Hyperfilm-^3H (Amersham, Piscataway, N.J.) for 6 weeks. Films were developed using a Kodak developer-D19 and Rapid fixer (Kodak, Rochester, N.Y.). […]

human MCH1 receptor = human MCH1 receptor (Homo sapiens, UniProt Q99705); test: Saturation and competition binding of [3H]Compound 10, membranes of Cos-7 cells transfected with MCH1; set-up: expressed in transfected cells; host or cells: COS-7
Sequence of human MCH1 receptor (Q99705 whole entry): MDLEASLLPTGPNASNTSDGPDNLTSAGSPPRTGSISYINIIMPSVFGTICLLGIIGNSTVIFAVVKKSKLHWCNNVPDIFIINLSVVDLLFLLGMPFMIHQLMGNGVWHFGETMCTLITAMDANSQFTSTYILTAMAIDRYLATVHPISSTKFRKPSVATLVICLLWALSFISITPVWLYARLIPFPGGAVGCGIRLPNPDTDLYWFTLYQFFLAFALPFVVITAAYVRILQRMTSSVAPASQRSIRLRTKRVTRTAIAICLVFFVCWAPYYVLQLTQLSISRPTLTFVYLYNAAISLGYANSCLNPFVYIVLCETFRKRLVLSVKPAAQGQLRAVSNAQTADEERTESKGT
Protocol: Saturation equilibrium binding of [3H]Compound 10 to the human MCH1 receptor. Membrane preparations from Cos-7 cells transfected with MCH1 were incubated with varying concentrations of [3H]Compound 10 (SA: 56 Ci/mmol) at room temperature for 90 min, in a volume of 0.250 ml. The reaction was terminated by filtration in GF/C filters, and the radioactivity determined by scintillation counting. Non-specific binding was defined as the amount of radioactivity retained in the filter after incubating the reaction mixture in the presence of unlabeled Compound 10 ([…]).
Competition binding of [3H]Compound 10 to the human MCH1 receptor. […] The reaction was terminated by filtration in GF/C filters and the radioactivity bound to the membrane was determined by scintillation counting.
[3H]Compound 10 was tested for its ability to bind to membrane preparations of cells expressing the human MCH1 receptor.

With [3H]C1CN(CCCNC(=O)N2C(=O)NC(COC)=C(C(=O)OC)[C@@H]2c2ccc(F)c(F)c2)CCC1([3H])c1cccc(NC(C)=O)c1 (stereo partly drawn) [[3H]Compound 10, TRITIATED METHYL (4S)-3-{[(3-{4-[3-(ACETYLAMINO)PHENYL]-1-PIPERIDINYL}PROPYL)AMINO]CARBONYL}-4-(3,4-DIFLUOROPHENYL)-6-(METHOXYMETHYL)-2-OXO-1,2,3,4-TETRAHYDRO-5-PYRIMIDINECARBOXYLATE] the specific binding ([1]; 0.1 nM with 100 μM dopamine and 1 μM prazosin, nonspecific: 10 μM unlabeled Compound 10) was “approximately 95%”, the “Density of MCH1 receptor binding sites” value ([1]; Amygdala: Anterior cortical n.) was “+” and the “Density of MCH1 receptor binding sites” value ([1]; Amygdala: Basolateral amygdaloid n.) was “+”. The “Density of MCH1 receptor binding sites” value ([1]; Amygdala: Bed n. Of the stria terminalis) was “++”, the “Density of MCH1 receptor binding sites” value ([1]; Amygdala: Central amygdaloid n.) was “+” and the “Density of MCH1 receptor binding sites” value ([1]; Basal Ganglia: Accumbens n., core) was “+++”. The “Density of MCH1 receptor binding sites” value ([1]; Basal Ganglia: Accumbens n., shell) was “++++”, the “Density of MCH1 receptor binding sites” value ([1]; Basal Ganglia: Caudate-putamen) was “+++” and the “Density of MCH1 receptor binding sites” value ([1]; Basal Ganglia: Globus pallidus) was “−”. For the same compound, the “Density of MCH1 receptor binding sites” value ([1]; Basal Ganglia: Medial septal n.) was “+”, the “Density of MCH1 receptor binding sites” value ([1]; Basal Ganglia: Septohippocampal n.) was “+” and the “Density of MCH1 receptor binding sites” value ([1]; Cerebellum) was “−”. The “Density of MCH1 receptor binding sites” value ([1]; Diencephalon, Thalamus: Anterodorsal n.) was “+”, the “Density of MCH1 receptor binding sites” value ([1]; Diencephalon, Thalamus: Centromedial n.) was “+” and the “Density of MCH1 receptor binding sites” value ([1]; Diencephalon, Thalamus: Mediodorsal n.) was “−”. For the same compound, the “Density of MCH1 receptor binding sites” value ([1]; Diencephalon, Thalamus: Paraventricular n.) was “+”, the “Density of MCH1 receptor binding sites” value ([1]; Diencephalon, Thalamus: Reticular n.) was “+” and the “Density of MCH1 receptor binding sites” value ([1]; Diencephalon: Hypothalamus) was “+”. For the same compound, the “Density of MCH1 receptor binding sites” value ([1]; Hippocampal formation: CA1) was “++”, the “Density of MCH1 receptor binding sites” value ([1]; Hippocampal formation: CA2) was “++” and the “Density of MCH1 receptor binding sites” value ([1]; Hippocampal formation: CA3) was “++”. The “Density of MCH1 receptor binding sites” value ([1]; Hippocampal formation: Pre/parasubiculum) was “++”, the “Density of MCH1 receptor binding sites” value ([1]; Locus coeruleus (listed under Mesencephalon)) was “++” and the “Density of MCH1 receptor binding sites” value ([1]; Mesencephalon: Caudal linear raphe n.) was “+”. For the same compound, the “Density of MCH1 receptor binding sites” value ([1]; Mesencephalon: Interpeduncular n.) was “++”, the “Density of MCH1 receptor binding sites” value ([1]; Mesencephalon: Periaqueductal gray) was “+” and the “Density of MCH1 receptor binding sites” value ([1]; Mesencephalon: Pontine n.) was “+”. The “Density of MCH1 receptor binding sites” value ([1]; Mesencephalon: Substantia nigra) was “+”, the “Density of MCH1 receptor binding sites” value ([1]; Mesencephalon: Superior colliculus) was “++” and the “Density of MCH1 receptor binding sites” value ([1]; Olfactory System: Anterior olfactory n.) was “+”. The “Density of MCH1 receptor binding sites” value ([1]; Olfactory System: Islands of Calleja, major) was “+++”, the “Density of MCH1 receptor binding sites” value ([1]; Olfactory System: Olfactory tubercle) was “+++” and the “Density of MCH1 receptor binding sites” value ([1]; Spinal cord: Dorsal horn) was “+”. For the same compound, the “Density of MCH1 receptor binding sites” value ([1]; Spinal cord: Ventral horn) was “+”, the “Density of MCH1 receptor binding sites” value ([1]; Telencephalon: Claustrum) was “++” and the “Density of MCH1 receptor binding sites” value ([1]; Telencephalon: Dorsal endopiriform n.) was “+”. The “maximum number of binding sites (Bmax)” value (human MCH1 receptor) was 870 fmol/mg protein.

Reference: patent US20040038855A1 (priority 1999, published 2004)
